Counter-ions that a name gives are not always drawn.
Molecular target: Avi-humanTEAD4 217-434 / Cy5 labeled humanYAP 60-100 (Homo sapiens (Human), UniProt Q15561)
Assay: TR-FRET YAP-TEAD4 in-vitro biochemical assay
Format: binding
Details: 1 nM Avi-humanTEAD4 217-434, 20 nM Cy5-humanYAP 60-100, 1 h room temperature
Protocol: N-terminus Cy5 labeled humanYAP^60-100 (20 nM) was then added to this preparation. Compounds were dissolved at 10 mM in 100% DMSO and serial dilutions were made in 100% DMSO. The diluted compound solutions were incubated in white 384-well plates (Greiner Bio-One) for 1 h at room temperature with the above described mix. The final DMSO concentration present in the assay was 1%. […] The IC50 values were estimated by fitting the data by nonlinear fit regression (GraphPad Prism).

Chain of Avi-humanTEAD4 217-434 / Cy5 labeled humanYAP 60-100 (Q15561 217-434): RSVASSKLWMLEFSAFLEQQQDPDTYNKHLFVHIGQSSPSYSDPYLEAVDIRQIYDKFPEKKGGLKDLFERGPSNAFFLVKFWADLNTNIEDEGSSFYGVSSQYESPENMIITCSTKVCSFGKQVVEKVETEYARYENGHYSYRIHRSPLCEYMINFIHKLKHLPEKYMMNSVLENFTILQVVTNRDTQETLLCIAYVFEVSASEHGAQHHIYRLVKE

Row | Compound | IC50 [nM]
1 | COc1ccc(C(N)=O)c(-c2c(Cl)ccc3c2[C@H](O)[C@@](CN)(c2ccccc2OC(F)(F)F)O3)c1F (atropisomer, axis not shown) [Example 93, 2-((2S,3S,4S)-2-(Aminomethyl)-5-chloro-3-hydroxy-2-(2-(trifluoromethoxy)phenyl)-2,3-dihydrobenzofuran-4-yl)-3-fluoro-4-methoxybenzamide] | 9
2 | CNC(=O)[C@H]1CC[C@H](NC[C@@]2(c3ccccc3)Cc3c(ccc(Cl)c3-c3c(F)cccc3C(N)=O)O2)CC1 (relative stereo) [Example 139a, 2-((2S,4S)-5-Chloro-2-((((trans)-4-(methylcarbamoyl)cyclohexyl)amino)methyl)-2-phenyl-2,3-dihydrobenzofuran-4-yl)-3-fluorobenzamide] | 21
3 | C[C@@H](CO)NC[C@@]1(c2ccccc2)Cc2c(cc(F)c(Cl)c2-c2c(C(N)=O)ccc(OC(F)F)c2F)O1 (atropisomer, axis not shown) [Example 75, 2-((2S,4S)-5-chloro-6-fluoro-2-((((S)-1-hydroxypropan-2-yl)amino)methyl)-2-phenyl-2,3-dihydrobenzofuran-4-yl)-4-(difluoromethoxy)-3-fluorobenzamide] | 38
4 | Cc1cccc(C(N)=O)c1-c1c(Cl)ccc2c1C[C@@](CN)(c1ccccc1)O2 (atropisomer, axis not shown) [Example 6, 2-((2S,4R)-2-(aminomethyl)-5-chloro-2-phenyl-2,3-dihydrobenzofuran-4-yl)-3-methylbenzamide] | 376
5 | CNC[C@@]1(c2ccccc2)Cc2c(cc(F)c(Cl)c2-c2c(C(N)=O)ccc(OC)c2F)O1 (atropisomer, axis not shown) [Example 46, 2-((2S,4S)-5-Chloro-6-fluoro-2-((methylamino)methyl)-2-phenyl-2,3-dihydrobenzofuran-4-yl)-3-fluoro-4-methoxybenzamide] | 3
6 | Cn1nccc1NC(=O)c1ccc(F)c(F)c1-c1c(Cl)ccc2c1C[C@@](CN)(c1ccccc1)O2 (atropisomer, axis not shown) [Example 24, 2-((2S,4S)-2-(aminomethyl)-5-chloro-2-phenyl-2,3-dihydrobenzofuran-4-yl)-3,4-difluoro-N-(1-methyl-1H-pyrazol-5-yl)benzamide] | 6
7 | COCCNC[C@@]1(c2ccccc2)Cc2c(cc(F)c(Cl)c2-c2c(C(N)=O)ccc(OC(F)F)c2F)O1 (atropisomer, axis not shown) [Example 77, 2-((2S,4S)-5-chloro-6-fluoro-2-(((2-methoxyethyl)amino)methyl)-2-phenyl-2,3-dihydrobenzofuran-4-yl)-4-(difluoromethoxy)-3-fluorobenzamide] | 71
8 | CC(=O)N1CCO[C@@H](COc2ccc(C(N)=O)c(-c3c(Cl)ccc4c3C[C@@](CN)(c3ccccc3)O4)c2F)C1 (atropisomer, axis not shown) [Example 17, 4-(((R)-4-acetylmorpholin-2-yl)methoxy)-2-((2S,4S)-2-(aminomethyl)-5-chloro-2-phenyl-2,3-dihydrobenzofuran-4-yl)-3-fluorobenzamide] | 13
9 | NC(=O)c1ccc(OC(F)F)c(F)c1-c1c(Cl)c(F)cc2c1[C@H](O)[C@@](CN[C@H]1CC[C@H](O)CC1)(c1ccccc1)O2 (relative stereo) [Example 100a, 2-((2S,3S,4S)-5-Chloro-6-fluoro-3-hydroxy-2-((((trans)-4-hydroxycyclohexyl)amino)methyl)-2-phenyl-2,3-dihydrobenzofuran-4-yl)-4-(difluoromethoxy)-3-fluorobenzamide] | 2
10 | C[C@]1(O)CC[C@H](NC[C@@]2(c3ccccc3)Cc3c(cc(F)c(Cl)c3-c3c(C(N)=O)ccc(OC[C@H]4CCCO4)c3F)O2)CC1 (atropisomer, axis not shown) [Example 67b, 2-((2S,4S)-5-chloro-6-fluoro-2-((((trans)-4-hydroxy-4-methylcyclohexyl)amino)methyl)-2-phenyl-2,3-dihydrobenzofuran-4-yl)-3-fluoro-4-(((R)-tetrahydrofuran-2-yl)methoxy)benzamide] | 3
11 | CCc1ccc(C(N)=O)c(-c2c(Cl)c(F)cc3c2C[C@@](CN[C@H]2CC[C@](C)(O)CC2)(c2ccccc2)O3)c1F (atropisomer, axis not shown) [Example 68a, 2-((2S,4S)-5-chloro-6-fluoro-2-((((trans)-4-hydroxy-4-methylcyclohexyl)amino)methyl)-2-phenyl-2,3-dihydrobenzofuran-4-yl)-4-ethyl-3-fluorobenzamide] | 10
12 | NC[C@@]1(c2ccccc2)Cc2c(ccc(Cl)c2-c2c(C(N)=O)ccc(OCC(=O)O)c2F)O1 (atropisomer, axis not shown) [Example 16, 2-(3-((2S,4S)-2-(aminomethyl)-5-chloro-2-phenyl-2,3-dihydrobenzofuran-4-yl)-4-carbamoyl-2-fluorophenoxy)acetic acid trifluoroacetate salt] | 6
13 | COc1ccc(C(N)=O)c(-c2c(Cl)ccc3c2[C@H](O)[C@@](CN[C@H]2CC[C@H](O)CC2)(c2ccccn2)O3)c1F (relative stereo) [Example 95a, 2-((2R,3S,4S)-5-Chloro-3-hydroxy-2-((((trans)-4-hydroxycyclohexyl)amino)methyl)-2-(pyridin-2-yl)-2,3-dihydrobenzofuran-4-yl)-3-fluoro-4-methoxybenzamide] | 8
14 | NC[C@@]1(c2ccccc2)Cc2c(cc(F)c(Cl)c2-c2c(C(N)=O)ccc(OCCC(F)F)c2F)O1 (atropisomer, axis not shown) [Example 41, 2-((2S,4S)-2-(aminomethyl)-5-chloro-6-fluoro-2-phenyl-2,3-dihydrobenzofuran-4-yl)-4-(3,3-difluoropropoxy)-3-fluorobenzamide] | 89
15 | C[C@]1(NC[C@@]2(c3ccccc3)Cc3c(cc(F)c(Cl)c3-c3c(C(N)=O)ccc(OC(F)F)c3F)O2)CC[C@H](O)CC1 (atropisomer, axis not shown) [Example 84, 2-((2S,4S)-5-chloro-6-fluoro-2-((((trans)-4-hydroxy-1-methylcyclohexyl)amino)methyl)-2-phenyl-2,3-dihydrobenzofuran-4-yl)-4-(difluoromethoxy)-3-fluorobenzamide] | 41
16 | CC1(NC[C@@]2(c3ccccc3)Cc3c(cc(F)c(Cl)c3-c3c(C(N)=O)ccc(OC(F)F)c3F)O2)CC1 (atropisomer, axis not shown) [Example 76, 2-((2S,4S)-5-chloro-6-fluoro-2-(((1-methylcyclopropyl)amino)methyl)-2-phenyl-2,3-dihydrobenzofuran-4-yl)-4-(difluoromethoxy)-3-fluorobenzamide] | 50
17 | C[C@]1(O)CC[C@@H](NC[C@@]2(c3ccccc3)Cc3c(cc(F)c(Cl)c3-c3c(C(N)=O)ccc(OCc4ncccn4)c3F)O2)CC1 (atropisomer, axis not shown) [Example 71b, 2-((2S,4S)-5-chloro-6-fluoro-2-((((cis)-4-hydroxy-4-methylcyclohexyl)amino)methyl)-2-phenyl-2,3-dihydrobenzofuran-4-yl)-3-fluoro-4-(pyrimidin-2-ylmethoxy)benzamide] | 1
18 | COc1ncc(C(N)=O)c(-c2c(Cl)c(F)cc3c2C[C@@](CN[C@H]2CC[C@](C)(O)CC2)(c2ccccc2)O3)c1F (atropisomer, axis not shown) [Example 66a, 4-((2S,4S)-5-chloro-6-fluoro-2-((((trans)-4-hydroxy-4-methylcyclohexyl)amino)methyl)-2-phenyl-2,3-dihydrobenzofuran-4-yl)-5-fluoro-6-methoxynicotinamide] | 2
19 | NCCOc1cccc(F)c1-c1c(Cl)ccc2c1C[C@](CN)(c1ccccc1)O2 [Example 3b, 2-(2-((2R,4R)-2-(aminomethyl)-5-chloro-2-phenyl-2,3-dihydrobenzofuran-4-yl)-3-fluorophenoxy)ethanamine] | 18000
20 | CS(=O)(=O)COc1ccc(C(N)=O)c(-c2c(Cl)c(F)cc3c2C[C@@](CN)(c2ccccc2)O3)c1F (atropisomer, axis not shown) [Example 40, 2-((2S,4S)-2-(aminomethyl)-5-chloro-6-fluoro-2-phenyl-2,3-dihydrobenzofuran-4-yl)-3-fluoro-4-((methylsulfonyl)methoxy)benzamide] | 42
21 | CC(=O)N1CCC(NC[C@@]2(c3ccccc3)Cc3c(cc(F)c(Cl)c3-c3c(C(N)=O)ccc(OC(F)F)c3F)O2)CC1 (atropisomer, axis not shown) [Example 70, 2-((2S,4S)-2-(((1-acetylpiperidin-4-yl)amino)methyl)-5-chloro-6-fluoro-2-phenyl-2,3-dihydrobenzofuran-4-yl)-4-(difluoromethoxy)-3-fluorobenzamide] | 20
22 | NC(=O)c1ccc(OC(F)F)c(F)c1-c1c(Cl)c(F)cc2c1C[C@@](CNC1CCC3(CCC(=O)N3)CC1)(c1ccccc1)O2 (single isomer, unassigned) [Example 59b] | 5
23 | COCCOc1ncc(C(N)=O)c(-c2c(Cl)c(F)cc3c2[C@H](C)[C@@](CN)(c2ccccc2)O3)c1F (atropisomer, axis not shown) [Example 108, 4-((2S,3S,4S)-2-(aminomethyl)-5-chloro-6-fluoro-3-methyl-2-phenyl-2,3-dihydrobenzofuran-4-yl)-5-fluoro-6-(2-methoxyethoxy)nicotinamide] | 2
24 | CO[C@H]1c2c(cc(F)c(Cl)c2-c2c(C(N)=O)ccc(OC(F)F)c2F)O[C@]1(CN[C@H]1CC[C@H](O)CC1)c1ccccc1 (relative stereo) [Example 102a, 2-((2S,3S,4S)-5-Chloro-6-fluoro-2-((((trans)-4-hydroxycyclohexyl)amino)methyl)-3-methoxy-2-phenyl-2,3-dihydrobenzofuran-4-yl)-4-(difluoromethoxy)-3-fluorobenzamide] | 3
